Results published in patent US6492137B1, “Response element compositions and assays employing same” (The Salk Institute for Biological Studies, priority 1989, dated 2002).

Biological target: T1, VDR (Homo sapiens, UniProt P11473)
T1 sequence (P11473 1-427): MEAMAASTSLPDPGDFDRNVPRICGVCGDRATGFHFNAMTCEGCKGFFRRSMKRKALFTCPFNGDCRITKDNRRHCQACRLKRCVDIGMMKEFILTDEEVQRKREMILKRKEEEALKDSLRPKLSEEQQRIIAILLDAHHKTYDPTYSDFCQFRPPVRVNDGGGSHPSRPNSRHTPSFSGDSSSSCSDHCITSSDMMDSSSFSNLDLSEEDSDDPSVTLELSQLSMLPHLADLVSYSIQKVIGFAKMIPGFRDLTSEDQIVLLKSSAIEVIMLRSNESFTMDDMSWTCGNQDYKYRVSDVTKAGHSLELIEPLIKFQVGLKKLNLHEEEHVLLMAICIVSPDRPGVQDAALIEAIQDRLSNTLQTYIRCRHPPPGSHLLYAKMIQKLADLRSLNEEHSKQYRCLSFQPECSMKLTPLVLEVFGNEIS
Assay: ΔSV-CAT reporter cotransfection assay in CV-1 cells with VDR expression plasmid, ±VD3
Assay type: cell-based
Design: expressed in transfected cells; host or cells: CV-1 (monkey kidney)
Conditions: VD3 100 nM
Description: Receptor expression plasmids used in the following cotransfection assays have been described previously (pRShTRβ [see Thompson, et al., Proc. Natl. Acad. Sci. U.S.A. 86: 3494-3498 (1989)]; pRShRARα [see Giguere, et al., Nature 330: 624-629 (1987)]; pRShRARβ and pRshRARγ [see Ishikawa, et al., Mol. Endocrinol, 4: 837-844 (1990)]; and pRShVDR, [Schule, et al., Cell 61: 497-504 (1990)]. A basal reporter plasmid ΔSV-CAT was constructed by replacing the TK promoter in TK-CAT [Damm, et al., Nature 339: 593-597 (1989)] with the SphI-HindIII fragment of the SV40 early promoter. All of the recombinant CAT reporter plasmids used herein harbor a single copy of the indicated oligonucleotides at the unique HindIII site upstream of the SV40 promoter. Identity of the inserted oligonucleotides was confirmed by sequencing. To improve production of receptor proteins in COS cells, a new eukaryotic expression vector pCMX was prepared by modifying the plasmid CDM8 [Seed, B., Nature 329: 840-842 (1987)]. The CDM8 was cut with MluI and StuI in order to release the DNA fragment encoding the CMV/T7 promoter, SV40 small t intron/poly A signal, polyoma virus enhancer/origin, and SV40 enhancer/origin. The resulting fragment was ligated to a larger fragment of PvuII-digested PUC19. An internal deletion was introduced between unique BamHI and BclI sites present in the DCM8 portion. […]

GDR-3: identical to DR-3 except half-site changed to AGAACA, a GRE half-site (SEQ ID NO:26) (AGCTTCAGAACAAGGAGAACAGAGAGCT; DNA, backbone not given here; double-stranded DNA response element with agct overhangs, cloned into reporter)
vitamin D3 response (in words): completely inactive

GDR-4: identical to DR-4 except half-site changed to AGAACA, a GRE half-site (SEQ ID NO:28) (AGCTTCAGAACACAGGAGAACAGAGAGCT; DNA, backbone not given here; double-stranded DNA response element with agct overhangs, cloned into reporter)
vitamin D3 response (in words): completely inactive
